Assay results as given in patent US10072016B2, “Substituted 4-phenylpiperidines, their preparation and use” (The Trustees of Columbia University in the City of New York, priority 2014, dated 2018).

Tests used:
RBP4 [1] = target: T1, RBP4 (Homo sapiens (Human), UniProt P02753); assay: Scintillation proximity (SPA) RBP4 binding assay; conditions: 10 nM 3H-Retinol, 50 nM biotinylated RBP4
Procedure: Scintillation Proximity RBP4 Binding Assay
Untagged human RBP4 purified from urine of tubular proteinuria patients was purchased from Fitzgerald Industries International. It was biotinylated using the EZ-Link Sulfo-NHS-LC-Biotinylation kit from Pierce following the manufacturer's recommendations. Binding experiments were performed in 96-well plates (OptiPlate, PerkinElmer) in a final assay volume of 100 μl per well in SPA buffer (1×PBS, pH 7.4, 1 mM EDTA, 0.1% BSA, 0.5% CHAPS). The reaction mix contained 10 nM ^3H-Retinol (48.7 Ci/mmol; PerkinElmer), 0.3 mg/well Streptavidin-PVT beads, 50 nM biotinylated RBP4 and a test compound. Nonspecific binding was determined in the presence of 20 μM of unlabeled retinol. The reaction mix was assembled in the dark under dim red light. The plates were sealed with clear tape (TopSeal-A: 96-well microplate, PerkinElmer), wrapped in the aluminum foil, and allowed to equilibrate 6 hours at room temperature followed by overnight incubation at +4° C. Radiocounts were measured using a TopCount NXT counter (Packard Instrument Company).

RBP4-TTR interaction [2] = target: T2, RBP4-TTR interaction (Homo sapiens (Human), UniProt P02753); assay: TR-FRET (HTRF) assay for retinol-induced RBP4-TTR interaction; format: biochemical; conditions: in the presence of 1 μM retinol; read-out: HTRF assay for antagonists of RBP4-TTR interaction: IC50
Excerpt: Binding of a desired RBP4 antagonist displaces retinol and induces hindrance for RBP4-TTR interaction resulting in the decreased FRET signal (FIG. 7). Bacterially expressed MBP-RBP4 and untagged TTR were used in this assay. […] Following cell lysis, recombinant RBP4 was purified from the soluble fraction using the ACTA FPLC system (GE Healthcare) equipped with the 5-ml the MBP Trap HP column. Human untagged TTR was purchased from Calbiochem. Untagged TTR was labeled directly with Eu^3+ Cryptate-NHS using the HTRF Cryptate Labeling kit from CisBio following the manufacturer's recommendations. HTRF assay was performed in white low volume 384 well plates (Greiner-Bio) in a final assay volume of 16 μl per well. The reaction buffer contained 10 mM Tris-HCl pH 7.5, 1 mM DTT, 0.05% NP-40, 0.05% Prionex, 6% glycerol, and 400 mM KF. […] Titration of test compounds in this assay was conducted in the presence of 1 μM retinol. All reactions were assembled in the dark under dim red light and incubated overnight at +4° C. wrapped in aluminum foil. TR-FRET signal was measured in the SpectraMax M5e Multimode Plate Reader (Molecular Device). […] The TR-FRET signal was expressed as the ratio of fluorescence intensity: Flu665/Flu620×10,000.

RBP4-TTR interaction [3] = target: T2, RBP4-TTR interaction; conditions: cited from earlier work
[4] = system: ocular all-trans retinol uptake; conditions: in vivo; cited from earlier work
Abca4−/− mice = conditions: animal model of excessive bisretinoid accumulation; cited from earlier work
[5] = in vivo; cited from earlier work
[6] = system: many cell types, including the retinal pigment epithelium cells; conditions: cited from earlier work
serum RBP4 and retinol = serum RBP4 and retinol (Rattus norvegicus (Rat), UniProt P04916); conditions: in vivo; cited from earlier work
RBP4 [7] = target: T1, RBP4; conditions: cited from earlier work

What does the source list for `COCCN1CCc2c(C(=O)N3CCC(c4cccc(F)c4C(F)(F)F)CC3)n[nH]c2C1` [Compound 73]?
IC50 (RBP4 [1]): 8.5 nM; IC50 (RBP4-TTR interaction [2]): 30.6 nM

For `CC1=C(/C=C/C(C)=C/C=C/C(C)=C/C(=O)Nc2ccc(O)cc2)C(C)(C)CCC1` [fenretinide, N-(4-hydroxy-phenyl)retinamide], which “disruption of RBP4-TTR interaction” value (RBP4-TTR interaction [3]) is on record?
Its value is “disrupt the RBP4-TTR interaction”.

And the “ocular all-trans retinol uptake and visual cycle” value [4]?
Its value is “inhibit ocular all-trans retinol uptake and slow down the visual cycle”.

What about the A2E production (Abca4−/− mice) of the same molecule?
Its A2E production is “reduced A2E production”.

And the teratogenicity [5]?
The teratogenicity was “teratogenic”.

What about the induction of apoptosis [6] of the same molecule?
The induction of apoptosis was “extremely active inducer of apoptosis”.

What about the “serum RBP4 and retinol” value (serum RBP4 and retinol) of the same molecule?
The value was “reduce serum RBP4 and retinol”.

What about the “binding to RBP4” value (RBP4 [7]) of the same molecule?
The value was “bind to RBP4”.

And the “displacement of all-trans retinol from RBP4” value (RBP4 [7])?
Its value is “displace all-trans retinol from RBP4”.
